≈ marks a conversion by molar mass, not a printed value. Bridge positions count the residues as written; N and C are the ends. Square brackets hold non-standard residues; d marks the D form. Peptide text beside a SMILES is read from it. * marks the point of attachment. X1 = CC[C@H](C)CCCCC(=O)*; Dab = NCC[C@H](N)C(=O)O
Tests used:
Type in all cases: cell-based
[1] = system: Salmonella typhimurium IFO13245; details: absence of NP4P; 10 mM Tris/HCl pH 7.5, 2 h incubation, colony count
Method: (§1) Microbicidal assay was performed as previously described. Briefly, each microbial strain in the mid-exponential phase was suspended in 10 mM Tris/HCl, pH 7.5. The microbial suspension was mixed with antimicrobials in the presence or absense of NP4P. After 2 h incubation, the suspension was diluted 1,000 times and inoculated on to plates of IFO702 medium. The number of colonies were counted, and a plot of peptide concentration vs colony number was created.

[2] = system: Pseudomonas aeruginosa IFO3899; details: absence of NP4P; 10 mM Tris/HCl pH 7.5, 2 h incubation, colony count
Method: as §1

[3] = system: Serratia marcescens IFO3736; details: absence of NP4P; 10 mM Tris/HCl pH 7.5, 2 h incubation, colony count
Method: as §1

Escherichia coli JM109 = details: for MBC, NP4P-: absence of NP4P, 10 mM Tris/HCl pH 7.5, 2 h incubation, colony count
Method: Microbicidal assay was performed as previously described. […] The microbial suspension was mixed with antimicrobials in the presence or absense of NP4P. After 2 h incubation, the suspension was diluted 1,000 times and inoculated on to plates of IFO702 medium. The number of colonies were counted, and a plot of peptide concentration vs colony number was created.

[4] = system: Staphylococcus aureus IFO12732; test: microbe, parasite or virus in culture; details: 10 mM Tris/HCl pH 7.5, 2 h incubation, colony count; for MBC: Staphylococcus aureus, IFO12732
Method: as §1

## CC[C@H](C)CCCCC(=O)N[C@@H](CCN)C(=O)N[C@H](C(=O)N[C@@H](CCN)C(=O)N[C@H]1CCNC(=O)[C@H]([C@@H](C)O)NC(=O)[C@H](CCN)NC(=O)[C@H](CCN)NC(=O)[C@H](CC(C)C)NC(=O)[C@@H](Cc2ccccc2)NC(=O)[C@H](CCN)NC1=O)[C@@H](C)O [Polymyxin B] (X1-[Dab]T[Dab][Dab][Dab][dF]L[Dab][Dab]T; lactam 4-C (inferred); N-terminus assumed)
[1]
  MBC, NP4P-: 5 µg/mL (≈ 4.15 µM)
[2]
  MBC, NP4P-: 5 µg/mL (≈ 4.15 µM)
[3]
  MBC, NP4P-: 5 µg/mL (≈ 4.15 µM)
Escherichia coli JM109
  MBC, NP4P-: 3 µg/mL (≈ 2.49 µM)
Escherichia coli JM109; in the presence of 100 μg/mL NP4P, 10 mM Tris-HCl, pH 7.4
  shift of bactericidal dose-effect curve to lower concentration: ~10 times lower concentration

## CC1(C)S[C@@H]2[C@H](NC(=O)[C@H](N)c3ccccc3)C(=O)N2[C@H]1C(=O)O [Ampicillin]
[4]; absence of NP4P
  MBC: 250 µg/mL (≈ 715 µM)
[4]; presence of 20 μg/mL NP4P
  MBC: 250 µg/mL

## CCN1CCN(c2cc3c(cc2F)c(=O)c(C(=O)O)cn3C2CC2)CC1 [Enrofloxacin]
[4]; absence of NP4P
  MBC: 0.25 µg/mL (≈ 0.696 µM)
[4]; presence of 20 μg/mL NP4P
  MBC: 0.25 µg/mL

## CC[C@H](C)[C@H](N)C(=O)N[C@@H](CC(C)C)C(=O)N1CCC[C@H]1C(=O)N[C@@H](Cc1c[nH]c2ccccc12)C(=O)N[C@@H](CCCCN)C(=O)N[C@@H](Cc1c[nH]c2ccccc12)C(=O)N1CCC[C@H]1C(=O)N[C@@H](Cc1c[nH]c2ccccc12)C(=O)N[C@@H](Cc1c[nH]c2ccccc12)C(=O)N1CCC[C@H]1C(=O)N[C@@H](Cc1c[nH]c2ccccc12)C(=O)N[C@@H](CCCNC(=N)N)C(=O)N[C@@H](CCCNC(=N)N)C(N)=O [Indolicidin]
Escherichia coli JM109
  MBC, NP4P-: 10 µg/mL (≈ 5.25 µM)
[4]; absence of NP4P
  MBC, NP4P-: 10 µg/mL (≈ 5.25 µM)

## NC[C@H]1O[C@H](O[C@H]2[C@H](O)[C@@H](O[C@H]3O[C@H](CO)[C@@H](O)[C@H](N)[C@H]3O)[C@H](N)C[C@@H]2N)[C@H](O)[C@@H](O)[C@@H]1O [Kanamycin]
[4]; absence of NP4P
  MBC, NP4P-: 3 µg/mL (≈ 6.19 µM)
[4]; presence of 20 μg/mL NP4P
  MBC, NP4P+: 3 µg/mL

— article PMC2834666, “An enhancer peptide for membrane-disrupting antimicrobial peptides” (BMC Microbiology, 2010)
